Literature values as cited in US20200022905A1 (priority 2009, published 2020).
Read-outs that look alike come from different tables or passages of the source.

Tests used:
[1] = especially by non-smokers
[2] = not given; remark: listed apart in the source

In the case of `CN1CCCC1c1cccnc1` (stereo not shown) [Nicotine], the “dose after which serious toxic reactions may be experienced” value [1] is listed as 4 to 8 mg, the “ratio of non-ionized form” value (pH 7.4) is listed as 30% and the “ratio of non-ionized form” value (pH 8.5) is listed as 80%. For the same compound, the “time to get to the brain after smoke inhalation” value [2] was “ten to twenty”.
